According to US12264134B2 (Merck Sharp & Dohme LLC, priority 2018, dated 2025):

Target: IDO1 (Homo sapiens, UniProt P14902)
Experiment: IDO1 Cellular Assay in HeLa Cells Stimulated with IFNγ
Assay type: cell-based
Settings: read-out: HeLa Cell Potency, IC50

Sequence of IDO1 (P14902 whole entry): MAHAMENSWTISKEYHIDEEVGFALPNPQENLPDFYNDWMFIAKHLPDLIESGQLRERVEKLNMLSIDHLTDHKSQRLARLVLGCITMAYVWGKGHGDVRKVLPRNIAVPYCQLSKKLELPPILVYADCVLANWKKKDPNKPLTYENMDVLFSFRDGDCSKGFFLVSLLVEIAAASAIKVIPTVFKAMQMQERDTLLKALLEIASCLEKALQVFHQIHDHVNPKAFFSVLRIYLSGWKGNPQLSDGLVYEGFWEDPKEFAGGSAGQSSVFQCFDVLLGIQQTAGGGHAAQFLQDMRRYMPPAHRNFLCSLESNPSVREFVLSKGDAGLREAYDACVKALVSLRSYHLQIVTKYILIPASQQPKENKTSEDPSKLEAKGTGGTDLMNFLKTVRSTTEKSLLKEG

Compound	IC50 [nM]
Cc1cccc(N2CCN(C(=O)Cn3nc(C(=O)N4CCCC(N(C)C)C4)c4c3CCC4)CC2)c1C (centres unmarked) [Example 186, 2-{3-[3-(dimethylamino)piperidine-1-carbonyl]-5,6-dihydrocyclopenta[c]pyrazol-1(4H)-yl}-1-[4-(2,3-dimethylphenyl)piperazin-1-yl]ethan-1-one]	37.9
Cc1cccc(N2CCN(C(=O)Cn3nc(C(=O)N4CCC5NC(=O)OCC5C4)c4c3C[C@H]3C[C@@H]43)CC2)c1C (stereo partly drawn) [Example 239, 6-[(3bR,4aR)-1-{2-[4-(2,3-dimethylphenyl)piperazin-1-yl]-2-oxoethyl}-3b,4,4a,5-tetahydro-1H-cyclopropa[3,4]cyclopenta[1,2-c]pyrazole-3-carbonyl]octahydro-2H-pyrido[4,3-d][1,3]oxazin-2-one]	6.53
Cc1cccc(N2CCN(C(=O)Cn3nc(C(=O)N4CC[C@H](O)[C@H](F)C4)c4c3CCC4C(F)F)CC2)c1C (mixture of isomers) [Example 19, 2-[rac-4-(difluoromethyl)-3-[(3R,4S)-3-fluoro-4-hydroxy-piperidine-1-carbonyl]-5,6-dihydro-4H-cyclopenta[c]pyrazol-1-yl]-1-[4-(2,3-dimethylphenyl)piperazin-1-yl]ethanone]	113
Cc1cccc(N2CCN(C(=O)Cn3nc(C(=O)N4C[C@@H](C)N[C@@H](C)C4)c4c3CCC4)CC2)c1C [Example 197, 1-[4-(2,3-dimethylphenyl)piperazin-1-yl]-2-{3-[(3R,5S)-3,5-dimethylpiperazine-1-carbonyl]-5,6-dihydrocyclopenta[c]pyrazol-1(4H)-yl}ethan-1-one]	11.4
Cc1cccc(N2CCN(C(=O)Cn3nc(C(=O)N4CC[C@H](O)[C@H](C)C4)c4c3CCC4)CC2)c1C [Example 99, 1-[4-(2,3-dimethylphenyl)piperazin-1-yl]-2-{3-[(3R,4S)-4-hydroxy-3-methylpiperidine-1-carbonyl]-5,6-dihydrocyclopenta[c]pyrazol-1(4H)-yl}ethan-1-one]	3.19
Cc1cccc(N2CCN(C(=O)Cn3nc(C(=O)N4CC[C@H](N)[C@H](F)C4)c4c3CCC4)CC2)c1C [Example 211, [(3R,4S)-1-[1-[2-[4-(2,3-dimethylphenyl)piperazin-1-yl]-2-oxo-ethyl]-5,6-dihydro-4H-cyclopenta[c]pyrazole-3-carbonyl]-3-fluoro-4-piperidyl]ammonium;formate]	72.1
Cc1cccc(N2CCN(C(=O)Cn3nc(C(=O)N4CCCC4)c4c3CCC(F)(F)C4)CC2)c1C [Example 6, 2-(5,5-difluoro-3-(pyrrolidine-1-carbonyl)-4,5,6,7-tetrahydro-1H-indazol-1-yl)-1-(4-(2,3-dimethylphenyl)piperazin-1-yl)ethanone]	8.13
CN[C@H]1CCCN(C(=O)c2nn(CC(=O)N3CCN(c4cccc(C)c4C)CC3)c3c2[C@@H]2C[C@@H]2C3)C1 [Example 241, 1-[4-(2,3-dimethylphenyl)piperazin-1-yl]-2-{(3bR,4aR)-3-[(3S)-3-(methylamino)piperidine-1-carbonyl]-3b,4,4a,5-tetrahydro-1H-cyclopropa[3,4]cyclopenta[1,2-c]pyrazol-1-yl}ethan-1-one]	164
Cc1cccc(N2CCN(C(=O)Cn3nc(C(=O)N4CC5CCC4CO5)c4c3CCC4)CC2)c1C (centres unmarked) [Example 105, 1-[4-(2,3-dimethylphenyl)piperazin-1-yl]-2-[3-(2-oxa-5-azabicyclo[2.2.2]octane-5-carbonyl)-5,6-dihydrocyclopenta[c]pyrazol-1(4H)-yl]ethan-1-one]	34.5
C[C@@H]1CN(C(=O)c2nn(CC(=O)N3CCN(c4cccc(Cl)c4F)CC3)c3c2CCC3)C[C@H](C)O1 [Example 78, 1-[4-(3-chloro-2-fluorophenyl)piperazin-1-yl]-2-{3-[(2R,6S)-2,6-dimethylmorpholine-4-carbonyl]-5,6-dihydrocyclopenta[c]pyrazol-1(4H)-yl}ethan-1-one]	38.2
Cc1c(C#N)cccc1N1CCN(C(=O)Cn2nc(C(=O)N3C[C@@H](C)O[C@@H](C)C3)c3c2CCC3)CC1 [Example 33, 3-[4-({3-[(2R,6S)-2,6-dimethylmorpholine-4-carbonyl]-5,6-dihydrocyclopenta[c]pyrazol-1(4H)-yl}acetyl)piperazin-1-yl]-2-methylbenzonitrile]	65
Cc1cccc(N2CCN(C(=O)Cn3nc(C(=O)N4CC[C@H](O)[C@H](F)C4)c4c3CC(C(F)F)C4)CC2)c1C (single isomer, unassigned) [Example 12]	13.2
COc1cc(N2CCN(C(=O)Cn3nc(C(=O)N4C[C@@H](C)O[C@@H](C)C4)c4c3CCC4)CC2)ccc1C [Example 37, 2-{3-[(2R,6S)-2,6-dimethylmorpholine-4-carbonyl]-5,6-dihydrocyclopenta[c]pyrazol-1(4H)-yl}-1-[4-(3-methoxy-4-methylphenyl)piperazin-1-yl]ethan-1-one]	234

The next lines start with the values.

IC50 [nM]	Compound
16.9	Cc1cccc(N2CCN(C(=O)Cn3nc(C(=O)N4CCC(F)(CO)C4)c4c3CCC4)CC2)c1C (centres unmarked) [Example 300, 1-[4-(2,3-dimethylphenyl)piperazin-1-yl]-2-{3-[3-fluoro-3-(hydroxymethyl)pyrrolidine-1-carbonyl]-5,6-dihydrocyclopenta[c]pyrazol-1(4H)-yl}ethan-1-one]
1.25	Cc1cccc(N2CCN(C(=O)Cn3nc(C(=O)N4CCC(O)CC4(C)C)c4c3CCCC4)CC2)c1C (centres unmarked) [Example 461, 1-(4-(2,3-dimethylphenyl)piperazin-piperazin-1-yl)-2-(3-(4-hydroxy-2,2-dimethylpiperidine-1-carbonyl)-4,5,6,7-tetrahydro-1H-indazol-1-yl)ethanone]
0.8	Cc1cccc(N2CCN(C(=O)Cn3nc(C(=O)N4CCC5(CC4)COC(CO)C5)c4c3C[C@H]3C[C@@H]43)CC2)c1C (stereo partly drawn) [Example 275, 1-[4-(2,3-dimethylphenyl)piperazin-1-yl]-2-{(3bR,4aR)-3-[3-(hydroxymethyl)-2-oxa-8-azaspiro[4.5]decane-8-carbonyl]-3b,4,4a,5-tetrahydro-1H-cyclopropa[3,4]cyclopenta[1,2-c]pyrazol-1-yl}ethan-1-one]
2.26	Cc1c(Cl)cccc1N1CCN(C(=O)Cn2nc(C(=O)N3CCN(CCO)CC3)c3c2C[C@H]2C[C@@H]32)C2(CC2)C1 [Example 316, 1-[7-(3-chloro-2-methylphenyl)-4,7-diazaspiro[2.5]octan-4-yl]-2-{(3bR,4aR)-3-[4-(2-hydroxyethyl)piperazine-1-carbonyl]-3b,4,4a,5-tetrahydro-1H-cyclopropa[3,4]cyclopenta[1,2-c]pyrazol-1-yl}ethan-1-one]
0.95	Cc1cccc(N2CCN(C(=O)Cn3nc(C(=O)N4CC[C@@H](O)C[C@@H]4C)c4c3C[C@H]3C[C@@H]43)CC2)c1C [Example 261, 1-[4-(2,3-dimethylphenyl)piperazin-1-yl]-2-{(3bR,4aR)-3-[(2S,4R)-4-hydroxy-2-methylpiperidine-1-carbonyl]-3b,4,4a,5-tetrahydro-1H-cyclopropa[3,4]cyclopenta[1,2-c]pyrazol-1-yl}ethan-1-one]
3.7	Cc1cccc(N2CCN(C(=O)Cn3nc(C(=O)N4C[C@H](O)C[C@H]4C)c4c3C[C@H]3C[C@@H]43)CC2)c1C [Example 292, 1-[4-(2,3-dimethylphenyl)piperazin-1-yl]-2-{(3bR,4aR)-3-[(2R,4R)-4-hydroxy-2-methylpyrrolidine-1-carbonyl]-3b,4,4a,5-tetrahydro-1H-cyclopropa[3,4]cyclopenta[1,2-c]pyrazol-1-yl}ethan-1-one]
42.6	Cc1cccc(N2CCN(C(=O)Cn3nc(C(=O)N4CCC(O)(CF)C4)c4c3CCC4)CC2)c1C (single isomer, unassigned) [Example 484, (S or R)-1-(4-(2,3-dimethylphenyl)piperazin-1-yl)-2-(3-(3-fluoromethyl)-3-hydroxypyrrolidine-1-carbonyl)-5,6-dihydrocyclopenta[c] pyrazol-1(4H)-yl) ethanone]
1.28	Cc1cccc(N2CCN(C(=O)Cn3nc(C(=O)N4CCC(O)C(CO)C4)c4c3C[C@H]3C[C@@H]43)CC2)c1C (stereo partly drawn) [Example 264, 1-[4-(2,3-dimethylphenyl)piperazin-1-yl]-2-{(3bR,4aR)-3-[4-hydroxy-3-(hydroxymethyl)piperidine-1-carbonyl]-3b,4,4a,5-tetrahydro-1H-cyclopropa[3,4]cyclopenta[1,2-c]pyrazol-1-yl}ethan-1-one]
1.41	Cc1c(F)ccc(N2CCN(C(=O)Cn3nc(C(=O)N4CC[C@@H](O)[C@H](F)C4)c4c3C[C@H]3C[C@@H]43)C3(CC3)C2)c1C [Example 318, 1-[7-(4-fluoro-2,3-dimethylphenyl)-4,7-diazaspiro[2.5]octan-4-yl]-2-{(3bR,4aR)-3-[(3R,4R)-3-fluoro-4-hydroxypiperidine-1-carbonyl]-3b,4,4a,5-tetrahydro-1H-cyclopropa[3,4]cyclopenta[1,2-c]pyrazol-1-yl}ethan-1-one]
2520	O=C(Cn1nc(C(=O)N2CC[C@H](O)[C@H](F)C2)c2c1CCC2)N1CCN(C2CCc3ccccc32)CC1 (single isomer, unassigned) [Example 440]
0.78	Cc1c(N2CCN(C(=O)Cn3nc(C(=O)N4CCC(O)(CF)CC4)c4c3C[C@H]3C[C@@H]43)CC2)cccc1C(F)(F)F [Example 336, 2-((3bR,4aR)-3-(4-(fluoromethyl)-4-hydroxypiperidine-1-carbonyl)-3b,4,4a,5-tetrahydro-1H-cyclopropa[3,4]cyclopenta[1,2-c]pyrazol-1-yl)-1-(4-(2-methyl-3-(trifluoromethyl)phenyl)piperazin-1-yl)ethanone]
1.05	Cc1cccc(N2CCN(C(=O)Cn3nc(C(=O)N4CCC(O)C(CO)C4)c4c3CCCC4)CC2)c1C (centres unmarked) [Example 452, 1-(4-(2,3-dimethylphenyl)piperazin-1-yl)-2-(3-(4-hydroxy-3-(hydroxymethyl)piperidine-1-carbonyl)-4,5,6,7-tetrahydro-1H-indazol-1-yl) ethanone]
1.64	Cc1cccc(N2CCN(C(=O)Cn3nc(C(=O)N4CCN(C(=O)CO)CC4)c4c3CC3CC43)CC2)c1C (centres unmarked) [Example 287, 1-[4-(2,3-dimethylphenyl)piperazin-1-yl]-2-{3-[4-(hydroxyacetyl)piperazine-1-carbonyl]-3b,4,4a,5-tetrahydro-1H-cyclopropa[3,4]cyclopenta[1,2-c]pyrazol-1-yl}ethan-1-one]
